Reference: US12509462B2, “3-(phenylsulfonyl)-[1,2,3]triazolo[1,5A]quinazolin-5(4H)-one derivatives” (BIOVERSYS AG, priority 2018, dated 2025)
≈ marks a conversion by molar mass, not a printed value. Read-outs that look alike come from different tables or passages of the source.

Experiments:
psmα = type: cell-based, Staphylococcus aureus
[1] = system: Staphylococcus aureus MRSA strain (USA300 isolate); experiment: Hemolysis Assay II (exotoxin-mediated lysis of rabbit red blood cells by culture filtrate); type: cell-based; conditions: Erythrocyte; for minimal effective concentration / IC95: 18 h; for minimal effective concentration: absorbance <2× the average of the complete inhibition control, read-out: Hemolysis assay II MEC (minimal effective concentration); for IC95: read-out: Hemolysis assay II IC95; for IC50: 18 h culture in CA-MHB, rabbit red blood cells
RNAIII = type: cell-based, Staphylococcus aureus; conditions: 10 μM compound, two hours, MRSA (USA300 isolate), normalized to rpoD
MRSA (USA300 isolate) = experiment: Hemolysis Assay I (exotoxin-mediated lysis of rabbit red blood cells by culture supernatant); type: cell-based, Staphylococcus aureus; conditions: 30/10/3.3/1.1/0.37 μM compound, values at OD600 of 0.75
MRSA = experiment: MIC by broth microdilution in CA-MHB (CLSI); conditions: Staphylococcus aureus, 18 h, read-out: MIC on MRSA
HepG2 = conditions: 48 h
[2] = Staphylococcus aureus, Erythrocyte

SMILES	Downregulation of psmα expression at 10 μM (psmα)	minimal effective concentration [1]	IC95 [1]	IC50 [1]	Downregulation of RNAIII expression at 10 μM (RNAIII)	IC50 (MRSA (USA300 isolate))	IC50 (MRSA (USA300 isolate); [2])	MIC (MRSA)	LD50 HepG2 (HepG2; human)	LD50 HepG2 (HepG2; compounds 0.8-100 μM, SEAP readout)
COc1ccc2c(=O)[nH]c3c(S(=O)(=O)c4ccc(C)cc4C(F)(F)F)nnn3c2c1 [Compound 26, 8-methoxy-3-[4-methyl-2-(trifluoromethyl)phenyl]sulfonyl-4H-triazolo[1,5-a]quinazolin-5-one]	++ (++ downregulation>100-fold (2 log10))	6 µg/mL	4.15 µg/mL (≈ 9.47 µM)	1 µg/mL (≈ 2.28 µM)	++ (++ downregulation>100-fold (2 log10))	700 nM	~1000 nM	≥ 100 µM	>=100 μM	
COc1cccc2c1c(=O)[nH]c1c(S(=O)(=O)c3ccc(C)cc3C)nnn12 [Compound 39, 3-(2,4-dimethylphenyl)sulfonyl-6-methoxy-4H-triazolo[1,5-a]quinazolin-5-one]		4 µg/mL	3.25 µg/mL (≈ 8.45 µM)	0.8 µg/mL (≈ 2.08 µM)			800 nM	≥ 100 µM	>=100 μM	
COc1ccc2c(=O)[nH]c3c(S(=O)(=O)c4ccc(C)cc4C)nnn3c2c1 [Compound 5, 3-(2,4-dimethylphenyl)sulfonyl-8-methoxy-4H-triazolo[1,5-a]quinazolin-5-one]	++ (++ downregulation>100-fold (2 log10))	6 µg/mL	11.7 µg/mL (≈ 30.3 µM)	2.05 µg/mL (≈ 5.33 µM)	+ (+ downregulation>10-fold (1 log10))		6000 nM	≥ 100 µM	>=100 μM	
Cc1ccc(S(=O)(=O)c2nnn3c2[nH]c(=O)c2ccc(O)cc23)c(C)c1 [Compound 36, 3-(2,4-dimethylphenyl)sulfonyl-8-hydroxy-4H-triazolo[1,5-a]quinazolin-5-one]		4 µg/mL	4.5 µg/mL (≈ 12.1 µM)	1.7 µg/mL (≈ 4.59 µM)			2800 nM	≥ 100 µM	>=100 μM	
Cc1ccc(S(=O)(=O)c2nnn3c2[nH]c(=O)c2ccc(OCCCC#N)cc23)c(C)c1 [Compound 41, 4-[[3-(2,4-dimethylphenyl)sulfonyl-5-oxo-4H-triazolo[1,5-a]quinazolin-8-yl]oxy]butanenitrile]		2 µg/mL	2.5 µg/mL (≈ 5.71 µM)	0.65 µg/mL (≈ 1.49 µM)				≥ 100 µM	>=100 μM	
Cc1ccc(S(=O)(=O)c2nnn3c2[nH]c(=O)c2ccc(Br)cc23)c(C)c1 [Compound 38, 8-bromo-3-(2,4-dimethylphenyl)sulfonyl-4H-triazolo[1,5-a]quinazolin-5-one]		4 µg/mL	4.6 µg/mL (≈ 10.6 µM)	1.4 µg/mL (≈ 3.23 µM)				50 µM (≈ 21.7 µg/mL)	>=100 μM	
Cc1ccc(S(=O)(=O)c2nnn3c2[nH]c(=O)c2ccccc23)c(Br)c1 [Compound 37, 3-(2-Bromo-4-methyl-phenyl)sulfonyl-4H-triazolo[1,5-a]quinazolin-5-one]		4 µg/mL	3.65 µg/mL (≈ 8.71 µM)	1.25 µg/mL (≈ 2.98 µM)			1500 nM	≥ 100 µM	>=100 μM	
Cc1ccc(S(=O)(=O)c2nnn3c2[nH]c(=O)c2ccc(NC4CCOCC4)cc23)c(C)c1 [Compound 49, 3-(2,4-dimethylphenyl)sulfonyl-8-(tetrahydropyran-4-ylamino)-4H-triazolo[1,5-a]quinazolin-5-one]		3 µg/mL	4.5 µg/mL (≈ 9.92 µM)	0.75 µg/mL (≈ 1.65 µM)				≥ 100 µM	50 µM	
CCc1ccc(S(=O)(=O)c2nnn3c2[nH]c(=O)c2ccc(OC)cc23)c(C)c1 [Compound 28, 3-(4-ethyl-2-methyl-phenyl)sulfonyl-8-methoxy-4H-triazolo[1,5-a]quinazolin-5-one]		8 µg/mL	4.5 µg/mL (≈ 11.3 µM)	2 µg/mL (≈ 5.02 µM)				≥ 100 µM	>=100 μM	
COc1cccc2c(=O)[nH]c3c(S(=O)(=O)c4ccc(C)cc4C)nnn3c12 [Compound 47, 3-(2,4-dimethylphenyl)sulfonyl-9-methoxy-4H-triazolo[1,5-a]quinazolin-5-one]		2 µg/mL	1.95 µg/mL (≈ 5.07 µM)	0.5 µg/mL (≈ 1.3 µM)				≥ 100 µM	>=100 μM	
Cc1ccc(S(=O)(=O)c2nnn3c2[nH]c(=O)c2ccc(OCC4COC(C)(C)O4)cc23)c(C)c1 (stereo not shown) [Compound 60, 8-[(2,2-dimethyl-1,3-dioxolan-4-yl)methoxy]-3-(2,4-dimethylphenyl)sulfonyl-4H-triazolo[1,5-a]quinazolin-5-one]		3 µg/mL	3.05 µg/mL (≈ 6.29 µM)	1 µg/mL (≈ 2.06 µM)				≥ 100 µM	>=100 μM	
Cc1ccc(S(=O)(=O)c2nnn3c2[nH]c(=O)c2ccc(N4CCC4)cc23)c(C)c1 [Compound 45, 8-(azetidin-1-yl)-3-(2,4-dimethylphenyl)sulfonyl-4H-triazolo[1,5-a]quinazolin-5-one]		6 µg/mL	8.85 µg/mL (≈ 21.6 µM)	1.7 µg/mL (≈ 4.15 µM)				≥ 100 µM		>=100 μM
Cc1ccc(S(=O)(=O)c2nnn3c2[nH]c(=O)c2cc(O)ccc23)c(C)c1 [Compound 46, 3-(2,4-dimethylphenyl)sulfonyl-7-hydroxy-4H-triazolo[1,5-a]quinazolin-5-one]		1 µg/mL	1.4 µg/mL (≈ 3.78 µM)	0.4 µg/mL (≈ 1.08 µM)				≥ 100 µM	>=100 μM	
COCCOCCOCCOc1ccc2c(=O)[nH]c3c(S(=O)(=O)c4ccc(C)cc4C)nnn3c2c1 [Compound 59, 3-(2,4-dimethylphenyl)sulfonyl-8-[2-[2-(2-methoxyethoxy)ethoxy]ethoxy]-4H-triazolo[1,5-a]quinazolin-5-one]		8 µg/mL	6.5 µg/mL (≈ 12.6 µM)	2.6 µg/mL (≈ 5.03 µM)				≥ 100 µM	>=100 μM	
COc1ccc2c(=O)[nH]c3c(S(=O)(=O)c4ccc(C5CC5)cc4C)nnn3c2c1 [Compound 27, 3-(4-cyclopropyl-2-methyl-phenyl)sulfonyl-8-methoxy-4H-triazolo[1,5-a]quinazolin-5-one]		2 µg/mL	1.9 µg/mL (≈ 4.63 µM)	0.15 µg/mL (≈ 0.365 µM)				≥ 100 µM	>=100 μM	
Cc1ccc(S(=O)(=O)c2nnn3c2[nH]c(=O)c2cccc(O)c23)c(C)c1 [Compound 50, 3-(2,4-dimethylphenyl)sulfonyl-9-hydroxy-4H-triazolo[1,5-a]quinazolin-5-one]		3 µg/mL	3.75 µg/mL (≈ 10.1 µM)	1.05 µg/mL (≈ 2.83 µM)				≥ 100 µM	>=100 μM	
COCCOc1ccc2c(=O)[nH]c3c(S(=O)(=O)c4ccc(C)cc4C)nnn3c2c1 [Compound 43, 3-(2,4-dimethylphenyl)sulfonyl-8-(2-methoxyethoxy)-4H-triazolo[1,5-a]quinazolin-5-one]		2 µg/mL	3.5 µg/mL (≈ 8.17 µM)	0.8 µg/mL (≈ 1.87 µM)				≥ 100 µM	>=100 μM	
Cc1ccc(S(=O)(=O)c2nnn3c2[nH]c(=O)c2ccc(OCCO)cc23)c(C)c1 [Compound 53, 3-(2,4-dimethylphenyl)sulfonyl-8-(2-hydroxyethoxy)-4H-triazolo[1,5-a]quinazolin-5-one]		2 µg/mL	2.2 µg/mL (≈ 5.31 µM)	0.7 µg/mL (≈ 1.69 µM)				≥ 100 µM	>=100 μM	
Cc1ccc(S(=O)(=O)c2nnn3c2[nH]c(=O)c2ccccc23)c(Cl)c1 [Compound 35, 3-(2-chloro-4-methyl-phenyl)sulfonyl-4H-triazolo[1,5-a]quinazolin-5-one]		4 µg/mL	3.7 µg/mL (≈ 9.87 µM)	1.25 µg/mL (≈ 3.34 µM)			1500 nM	≥ 100 µM	>=100 μM	
